A short description of experiment [1]: Compound was tested for its in vitro inhibitory effect on the replication of DNA and RNA viruses at 1 mM; No inhibition. It is filed as functional.
The test system of experiment [2] is MT4. The experiment in a line: Compound was tested for its cytotoxic effect against MT-4 cells at 1 mM; No effect. It is filed as functional, cell-based. The conditions noted are these: Homo sapiens.
For experiment [3], the system named is MT4. The experiment in a line: Compound was tested for its cytotoxic effect against MT-4 cells at 1 mM;value between 10-100 uM. It is filed as functional. The conditions noted are these: Homo sapiens, read-out: CD50 (the source's name).
In experiment [4] the test system is MT4. The experiment in a line: Compound was tested for its cytotoxic effect against MT-4 cells at 1 mM; 1 to 10 uM. It is filed as functional. The conditions noted are these: Homo sapiens, read-out: CD50 (the source's name).

Structures are written as SMILES. The source made the active and inactive calls. The calls are words filed in the database; no cut-off is given here.

Take `Nc1nc(O)c2ncn(C(OCCO)C(O)CO)c2n1` (stereo not drawn): the outcome (in experiment [1]; with MT4 [2]) was inactive.

Regarding `Nc1nc(O)c2ncn(C3CC(O)C(O)CO3)c2n1` (stereo not drawn), the CC50 with MT4 [3] is less than 100 µM. For the same molecule, in experiment [1], the result was inactive.

`Nc1nc(O)c2ncn(C(CCO)OCCO)c2n1` (stereo not drawn): the result in experiment [1] was inactive. In addition, the CC50 with MT4 [4] is less than 10 µM.

On to `Nc1nc(O)c2ncn(C(CO)OCCO)c2n1` (stereo not drawn), for which the outcome (in experiment [1]; with MT4 [2]) was inactive.

These data come from ChEMBL document CHEMBL1151513, “Stereospecific synthesis of chiral acyclic analogues of guanosine” (1992).
